Test system: zebrafish neuromast HCs
Assay: NMDA excitotoxicity in zebrafish neuromast hair cells
Format: in vivo
Settings: 2 nM and 18 nM; 300 μM NMDA
Experimental: Now referring to FIGS. […], representative samples of the mouse HCs at 32 kHz, the most protected frequency region shown by ABR measurement (FIG. 4E). […] Niclosamide protects NMDA-induced hair cell loss in zebrafish. Application of the N-methyl-d-aspartate (NMDA) to zebrafish neuromast HCs has also been used to mimic glutamate excitotoxicity associated with noise exposure (Katie S. Kindt and Lavinia Sheets, 2018). The results of the HC count following exposure of zebrafish to 300 μM NMDA led to hair-cell loss.
Now referring to FIGS. 5A-5F Niclosamide had protective effects on NIHL in Zebrafish and FVB/NJ mice in vivo. CIHL and NIHL share mechanistic commonalities. Now referring to FIG. 5A, to test whether Niclosamide protects HCs from excitotoxic trauma, a zebrafish model that mimics noise damage was employed, Zebrafish were exposed to the ionotropic glutamate receptor agonist, N-methyl-D-aspartate (NMDA), previously shown to cause progressive HC loss in zebrafish lateral-line organs (Sheets, 2017) with or without niclosamide. 5-dpf larvae were preincubated with 300 μM NMDA for 50 min followed by 2 hours incubation with niclosamide at 2 nM and 18.3 nM.

Structure (SMILES): O=C(Nc1ccc([N+](=O)[O-])cc1Cl)c1cc(Cl)ccc1O [Niclosamide, 5-chloro-N-(2-chloro-4-nitrophenyl)-2-hydroxy-benzamide]
- HC survival after NMDA: significantly increased HC survival

Source: US12661362B2, “Methods for the prevention and treatment of hearing loss” (Ting Therapeutics LLC, priority 2020, dated 2026)
